Patent publication US20090180969A1, “PHARMACEUTICAL FORMULATION COMPRISING AN ANTICHOLINERGIC DRUG” (Chiesi Farmaceutici S.p.A., priority 2008, published 2009)

Assays:
[1] = tested on: acetylcholine (Ach)-induced increase in Penh (airway reactivity); experiment: Bronchodilation activity: Ach-induced increase in Penh, barometric plethysmography; type: in vivo, guinea pig; conditions: for bronchoprotective effect: 24 hours
Protocol: Airway reactivity is measured using barometric plethysmography (Buxco, USA). Male guinea pigs (500-600 g) are individually placed in plexiglass chambers. After an acclimatisation period, animals are exposed to nebulised saline for 1 minute to obtain airway baseline reading. This is followed by a 1 minute challenge with nebulised acetylcholine (Ach)-2.5 mg/mL. After 60 minutes, 5 minute nebulisation of vehicle or the compound 1′ in the range 2.5-250 μM are applied and Ach challenge is then repeated after 2, 5, 24, 48 and 72 hours (h). Recording of pressure fluctuations in the chambers are taken for 5 minutes after each nebulisation and analysed to calculate Enhanced Pause (Penh). Airway reactivity is expressed as percentage increase in Penh compared with Penh values from the nebulisation of vehicle. […] After inhalation of […] of compound 1′, effect persists unchanged up to 48 hours (83.0±16.1%), while at 72 hours a residual activity of 34.8±20.9% is present.

[2] = Estimation of lung levels after nebulisation; type: in vivo; conditions: guinea pig, inhaled, nebulisation with submaximal bronchodilator activity, 2 hours after treatment, read-out: retained dose in the target organ (lung)

O=C(C[N+]12CCC(CC1)[C@@H](OC(=O)N(Cc1cc(F)c(F)c(F)c1)c1cccc(F)c1)C2)c1cccs1.[Cl-] [compound 1′, (3R)-3-[[[(3-fluorophenyl)[(3,4,5-trifluorophenyl)methyl]amino]carbonyl]oxy]-1-[2-oxo-2-(2-thienyl)ethyl]-1-azoniabicyclo[2.2.2]octane chloride]
bronchoprotective effect ([1]; 25 μM inhalation): 63.7±15.1%
bronchoprotective effect ([1]; 50 μM inhalation): 87.1±8.7%
inhibition ([1]; 50 μM inhalation, 48 h): 49.2±23.2%
maximal effect, inhibition of Ach-induced increase in Penh ([1]; 50 μM nebulised, 2 hours after end of nebulisation): 99.6±0.4
effect (inhibition of Ach-induced increase in Penh) ([1]; 250 μM inhalation, 48 hours): 83.0±16.1%
residual activity ([1]; 250 μM inhalation, 72 hours): 34.8±20.9%
duration of effect ([1]; inhalation of lower concentrations (below 25 μM)): ≤ 5 h
concentration at 2 h [2]: ~50 ng/g
